According to patent US10064883B2, “Lipiodol-based anti-tumour emulsion for treating cancer” (CHU DE DIJON, priority 2012, dated 2018):

How the values were obtained:
Format in all cases: cell-based
HepG2 = test: in vitro effectiveness of anticancer agents on CHC cell line HepG2
SNU-398 = test: in vitro effectiveness of anticancer agents on CHC cell line SNU-398; conditions: SNU-398 CHC cell line
SNU-449 = test: in vitro effectiveness of anticancer agents on CHC cell line SNU-449; conditions: SNU-449 CHC cell line

Measured: effectiveness among the anticancer agents in vitro

CC(=O)[C@]1(O)Cc2c(O)c3c(c(O)c2[C@@H](O[C@H]2C[C@H](N)[C@H](O)[C@H](C)O2)C1)C(=O)c1ccccc1C3=O [Idarubicin]
most effective: HepG2 | SNU-398 | SNU-449
